In article PMC12592486 (Scientific Reports, 2025):

What was measured:
[1] = biological target: T1, α-glucosidase (Saccharomyces cerevisiae, UniProt P53341); experiment: α-glucosidase inhibition assay; format: biochemical, S. cerevisiae
[2] = biological target: T1, α-glucosidase; experiment: Enzyme kinetics study; format: biochemical, S. cerevisiae

T1 sequence (P53341 whole entry): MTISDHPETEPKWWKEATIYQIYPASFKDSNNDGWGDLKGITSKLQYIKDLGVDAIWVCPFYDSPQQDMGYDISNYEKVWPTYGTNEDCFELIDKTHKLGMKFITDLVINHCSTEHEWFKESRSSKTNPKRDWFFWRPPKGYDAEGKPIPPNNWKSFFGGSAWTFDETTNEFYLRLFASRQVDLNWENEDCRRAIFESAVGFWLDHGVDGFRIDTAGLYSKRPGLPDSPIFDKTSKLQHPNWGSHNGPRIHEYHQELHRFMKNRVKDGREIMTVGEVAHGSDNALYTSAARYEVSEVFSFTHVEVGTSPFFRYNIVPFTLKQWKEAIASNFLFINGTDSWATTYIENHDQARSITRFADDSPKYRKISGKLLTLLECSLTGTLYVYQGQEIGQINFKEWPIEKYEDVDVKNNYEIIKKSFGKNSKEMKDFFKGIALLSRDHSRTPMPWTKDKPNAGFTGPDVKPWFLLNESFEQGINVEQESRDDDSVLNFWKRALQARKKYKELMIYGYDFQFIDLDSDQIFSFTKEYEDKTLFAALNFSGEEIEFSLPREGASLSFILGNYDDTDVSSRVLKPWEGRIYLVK

| SMILES | times/folds more active than the standard inhibitor acarbose [1] | also measured |
| --- | --- | --- |
| COc1ccc(NC(=S)NN=Cc2cn(S(=O)(=O)c3ccc(Cl)cc3)c3ccccc23)cc1 [Compound 5b, 2-({1-[(4-Chlorophenyl)sulfonyl]-1H-indol-3-yl}methylene)-N-(4-methoxyphenyl)hydrazine-1-carbothioamide] |  | folds more active than 5k ([1]; 4-methoxyphenyl vs 3-methoxyphenyl): 1.3 folds |
| O=S(=O)(c1ccc(Cl)cc1)n1cc(C=NNC(=S)Nc2c(Cl)cccc2Cl)c2ccccc21 [Compound 5w, 2-({1-[(4-Chlorophenyl)sulfonyl]-1H-indol-3-yl}methylene)-N-(2,6-dichlorophenyl)hydrazine-1-carbothioamide] | more than 100 folds |  |
| CC(C)CNC(=S)NN=Cc1cn(S(=O)(=O)c2ccc(Cl)cc2)c2ccccc12 [Compound 5p, 2-({1-[(4-Chlorophenyl)sulfonyl]-1H-indol-3-yl}methylene)-N-isobutylhydrazine-1-carbothioamide] | fifteen |  |

The next lines start with results.

| times/folds more active than the standard inhibitor acarbose [1] | SMILES | also measured |
| --- | --- | --- |
| more than 100 folds | O=S(=O)(c1ccc(Cl)cc1)n1cc(C=NNC(=S)Nc2ccc(Br)cc2)c2ccccc21 [Compound 5s, N-(4-Bromophenyl)-2-({1-[(4-chlorophenyl)sulfonyl]-1H-indol-3-yl}methylene)hydrazine-1-carbothioamide] |  |
| 162 folds | O=S(=O)(c1ccc(Cl)cc1)n1cc(C=NNC(=S)Nc2ccc(Br)cc2F)c2ccccc21 [Compound 5u, N-(4-Bromo-2-fluorophenyl)-2-({1-[(4-chlorophenyl)sulfonyl]-1H-indol-3-yl}methylene)hydrazine-1-carbothioamide] | better inhibition of 5u compared to 5p ([1]; most active vs least active inhibitor): about 11 folds; Ki [2]: 3.57 ± 0.0084 µM; type of inhibition ([2]; Km increases, Vmax constant): competitive type inhibitor |
